According to patent US20230119141A1, “USES OF TAXIFOLIN FOR R[…]” (PHYTO TECH CORP., priority 2021, published 2023):

Tested on: SARS-CoV-2
Assay: SARS-CoV-2 infection in Golden Syrian hamsters, viral loads in swabs and organs
Assay type: in vivo
Protocol: The therapeutic efficacy of taxifolin against SARS-CoV-2 infection was examined in Golden Syrian hamsters, a small animal model that most closely recapitulates clinical and pathological features of COVID-19 in humans. See, e.g., Imai, M, et al., Proc. Nat. Acad. Sci. 117(28):16587-16595 (2020); Reagan-Shaw, S., et al., FASEB J. 22:659-661 (2007). […] Animals in the taxifolin group (n=15) received prophylactic treatment of taxifolin (66.7 mg/kg) through oral gavage (OG) before the viral infection.
After SARS-CoV-2 inoculation, animals in the taxifolin group were orally given taxifolin (66.7 mg/kg) at days 1, 3, and 5. Animals in the control group (n=10) received an equal amount of PBS through oral gavage. At day 7, certain animals in the taxifolin (n=6) group and control group (n=5) were sacrificed, and the viral loads in major organs were tested.

## O=C1c2c(O)cc(O)cc2OC(c2ccc(O)c(O)c2)C1O (stereo not shown) [taxifolin, 2-(3,4-dihydroxyphenyl)-3,5,7-trihydroxychroman-4-one]
Day 5 after infection, taxifolin 66.7 mg/kg oral gavage prophylactic and at days 1, 3, 5, n=8, control ~3×10^6
  viral load in nasal swabs: ~7×10^4 RNA copies/100 μL
Day 7, taxifolin 66.7 mg/kg oral gavage
  viral loads in oral swabs vs control: decreased the viral loads in oral swabs
Day 7, taxifolin 66.7 mg/kg oral gavage, n=4 per group
  viral loads in the trachea vs control: clearly reduced the viral loads in the trachea
Days 3 and 5 after viral infection, taxifolin 66.7 mg/kg oral gavage
  viral loads in nasal swabs vs control: significantly lowered the viral loads in nasal swabs
